We go through two compounds from patent publication US20020127186A1, “Use of electrolytes (lons in solution) to suppress charging of inhalation aerosols” (priority 2000, published 2002).

The nature of data set [1]: Residue between aerosol generation and Faraday cup, inspected after each extrusion. The format is physicochemical. Conditions: EXAMPLE 1, diffuser on; 30 mg/ml in water; compared with DI water. An excerpt:
The region between aerosol generation and the Faraday cup was inspected after each extrusion (“run”), and any residue found was wiped clean. This region was all metallic in the system used here and comprised two separable parts, the so-called “clamp”, in which the packet is held and the aerosol is generated, and the so-called “diffuser”, which is positioned immediately downstream from the clamp. This diffuser was removed in some of the Examples herein discussed. […] Several runs carried out with a “dummy” packet that contained no liquid (labeled “no article” by the “X” in FIG. 1) gave rise to no measurable levels of charge. […] The difference in residue is another indication of high charging.

A short description of data set [2]: Net aerosol electric charge of AERx aerosols, measured with a Faraday cup. In kind it is physicochemical. As for the experimental part: The AERx™ system (as described and disclosed in U.S. Pat. Nos. 5,544,646 and 6,123,068) produces aerosols by extruding the liquid contents of a single dose blister packet (here 45 uL) through an array of micro-drilled holes. The jets formed during the extrusion process are entrained by the patient inhalation air flow. (Schuster J et al., In Drug Delivery to the Lungs VIII, pp14-17, 1997; Schuster J et al., In Respiratory Drug Delivery VI, pp. 83-90, 1998).
For the measurements of electric charge, the air flow was simulated with pressurized house air. A Faraday cup was inserted in the flow path of the aerosol a few centimeters downstream from the point of generation. It comprised a perforated aluminum cartridge filled with a paper filter, which was inserted into and insulated from a grounded metal enclosure, used as a shield from external electromagnetic noise. A coaxial wire connected to the aluminum cartridge was passed through the metal enclosure and connected to a current-voltage converter of the op-amp design (ammeter). The voltage output from the ammeter was acquired as a function of time by a computer together with other information about the extrusion process, such as the position of the piston that pressurizes the blister pack during an extrusion.
The formulations tested in EXAMPLES 1, 2 and 3 were de-ionized water (DI), sterile water for injection USP (WFI), 5 mM and 10 mM sodium chloride in water, and 30 mg/ml sodium cromoglycate (cromolyn) in water.
The region between aerosol generation and the Faraday cup was inspected after each extrusion (“run”), and any residue found was wiped clean. This region was all metallic in the system used here and comprised two separable parts, the so-called “clamp”, in which the packet is held and the aerosol is generated, and the so-called “diffuser”, which is positioned immediately downstream from the clamp. This diffuser was removed in some of the Examples herein discussed.
A measure of the net electric charge carried by the bolus was obtained from the numerical integral over time of the electric current signals. […]

The mark [3] stands for this setting: EXAMPLE 2, diffuser not present, solutions in water (5 and 10 mM NaCl; 30 mg/ml cromolyn), compared with WFI, FIG. 2.

As for `O=C(O)c1cc(=O)c2c(OCC(O)COc3cccc4oc(C(=O)O)cc(=O)c34)cccc2o1` [cromolyn, sodium cromoglycate], the “residue in the diffuser” value in data set [1] is given as “a small fraction of the initial packet contents”. Also, the net aerosol charge entry in data set [2] (EXAMPLE 1, diffuser on, 30 mg/ml in water, compared with DI water, FIG. 1) is “significantly reduced charge level”; in data set [2] (setting [3]) it was “much lower charge than water for injection”.
Consider `[Cl-].[Na+]` [NaCl, sodium chloride], for which the net aerosol charge entry in data set [2] (setting [3]) is “much lower charge than water for injection”.
